Where no end group is shown, it is not given here. [ ]: non-standard residue; d: D form. Lys(Me3) = C[N+](C)(C)CCCC[C@H](N)C(=O)O; Me3 = trimethyl (on lysine side chain); Lys(Me) = CNCCCC[C@H](N)C(=O)O
What was measured:
Assay in all cases: Histone peptide microarray
Assay type in all cases: binding, human
Conditions in all cases: sheet "Array Heatmap"
SP140L = test system: SP140L
Procedure, shortened: (§1)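 GST-PHD reader, 0.5 μM, probed on 293-peptide histone array (single/combinatorial PTMs); optimized array protocol; signal = mean ± SD, n = 4.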

TAF3 = test system: TAF3
Procedure, shortened: as §1

PHF23 = test system: PHF23
Procedure, shortened: as §1

PHF21A = test system: PHF21A
Procedure, shortened: as §1

ING3 = test system: ING3
Procedure, shortened: as §1

KDM5A (3) = test system: KDM5A (3)
Procedure, shortened: as §1

BAZ2B = test system: BAZ2B
Procedure, shortened: as §1

PHF13 = test system: PHF13
Procedure, shortened: as §1

ING1 = test system: ING1
Procedure, shortened: as §1

KDM4C (TTP) = test system: KDM4C (TTP)
Procedure, shortened: as §1

MORC3 (CW) = test system: MORC3 (CW)
Procedure, shortened: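 Binding read as mean relative signal from 4 replicates; microarray held 293 synthetic histone peptides with single or combinatorial PTMs. Each GST-tagged PHD reader was applied at 0.5 μM using the optimized Petell protocol.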

ING4 = test system: ING4
Procedure, shortened: as §1

TRIM66 (PB) = test system: TRIM66 (PB)
Procedure, shortened: as §1

PHF2 = test system: PHF2
Procedure, shortened: as §1

CHD5 (PCC) = test system: CHD5 (PCC)
Procedure, shortened: as §1

PHF8 = test system: PHF8
Procedure, shortened: as §1

BPTF (PB) = test system: BPTF (PB)
Procedure, shortened: as §1

AIRE (PP) = test system: AIRE (PP)
Procedure, shortened: as §1

RAG2 = test system: RAG2
Procedure, shortened: as §1

CHD4 (PPCC) = test system: CHD4 (PPCC)
Procedure, shortened: as §1

PHRF1 (RP) = test system: PHRF1 (RP)
Procedure, shortened: as §1

ING2 = test system: ING2
Procedure, shortened: as §1

DPF2 (PPC2W2) = test system: DPF2 (PPC2W2)
Procedure, shortened: as §1

KDM7A = test system: KDM7A
Procedure, shortened: as §1

KDM5B (1) = test system: KDM5B (1)
Procedure, shortened: as §1

KDM5B (3) = test system: KDM5B (3)
Procedure, shortened: as §1

MLL5 = test system: MLL5
Procedure, shortened: as §1

KDM5A (1) = test system: KDM5A (1)
Procedure, shortened: as §1

CHD5 (PPCC) = test system: CHD5 (PPCC)
Procedure, shortened: as §1

DIDO1 = test system: DIDO1
Procedure, shortened: as §1

ING5 = test system: ING5
Procedure, shortened: as §1

[1] = GST-tagged reader, histone peptide array, total n = 4

## H3K56me3 (52-61): H3 52-61 (RRYQK(Me3)STELL; UniProt P68431 53-62, looked up, fragment)
SP140L; GST-tagged SP140L, arrays performed twice, total replicate number n = 4
  Array Heatmap signal, SP140L: 0.3549
TAF3; GST-tagged TAF3, arrays performed twice, total replicate number n = 4
  Array Heatmap signal, TAF3: 0.2469
PHF23; GST-tagged PHF23, arrays performed twice, total replicate number n = 4
  Array Heatmap signal, PHF23: 0.5132
PHF21A; GST-tagged PHF21A, arrays performed twice, total replicate number n = 4
  Array Heatmap signal, PHF21A: 0.4399
ING3; GST-tagged ING3, arrays performed twice, total replicate number n = 4
  Array Heatmap signal, ING3: 0.4641
KDM5A (3); GST-tagged KDM5A (3), arrays performed twice, total replicate number n = 4
  Array Heatmap signal, KDM5A (3): 0.4564
BAZ2B; GST-tagged BAZ2B, arrays performed twice, total replicate number n = 4
  Array Heatmap signal, BAZ2B: 0.4232
PHF13; GST-tagged PHF13, arrays performed twice, total replicate number n = 4
  Array Heatmap signal, PHF13: 0.5794
ING1; GST-tagged ING1, arrays performed twice, total replicate number n = 4
  Array Heatmap signal, ING1: 0.5013
KDM4C (TTP); GST-tagged KDM4C (TTP), arrays performed twice, total replicate number n = 4
  Array Heatmap signal, KDM4C (TTP): 0.4664
MORC3 (CW); GST-tagged MORC3 (CW), arrays performed twice, total replicate number n = 4
  Array Heatmap signal, MORC3 (CW): 0.3573
ING4; GST-tagged ING4, arrays performed twice, total replicate number n = 4
  Array Heatmap signal, ING4: 0.4217
TRIM66 (PB); GST-tagged TRIM66 (PB), arrays performed twice, total replicate number n = 4
  Array Heatmap signal, TRIM66 (PB): 0.5682
PHF2; GST-tagged PHF2, arrays performed twice, total replicate number n = 4
  Array Heatmap signal, PHF2: 0.4592
CHD5 (PCC); GST-tagged CHD5 (PCC), arrays performed twice, total replicate number n = 4
  Array Heatmap signal, CHD5 (PCC): 0.7613
PHF8; GST-tagged PHF8, arrays performed twice, total replicate number n = 4
  Array Heatmap signal, PHF8: 0.3607
BPTF (PB); GST-tagged BPTF (PB), arrays performed twice, total replicate number n = 4
  Array Heatmap signal, BPTF (PB): 0.343
AIRE (PP); GST-tagged AIRE (PP), arrays performed twice, total replicate number n = 4
  Array Heatmap signal, AIRE (PP): 0.4132
RAG2; GST-tagged RAG2, arrays performed twice, total replicate number n = 4
  Array Heatmap signal, RAG2: 0.2347
CHD4 (PPCC); GST-tagged CHD4 (PPCC), arrays performed twice, total replicate number n = 4
  Array Heatmap signal, CHD4 (PPCC): 0.5342
PHRF1 (RP); GST-tagged PHRF1 (RP), arrays performed twice, total replicate number n = 4
  Array Heatmap signal, PHRF1 (RP): 0.4158
ING2; GST-tagged ING2, arrays performed twice, total replicate number n = 4
  Array Heatmap signal, ING2: 0.5755
DPF2 (PPC2W2); GST-tagged DPF2 (PPC2W2), arrays performed twice, total replicate number n = 4
  Array Heatmap signal, DPF2 (PPC2W2): 0.6082
KDM7A; GST-tagged KDM7A, arrays performed twice, total replicate number n = 4
  Array Heatmap signal, KDM7A: 0.3588
KDM5B (1); GST-tagged KDM5B (1), arrays performed twice, total replicate number n = 4
  Array Heatmap signal, KDM5B (1): 0.6393
KDM5B (3); GST-tagged KDM5B (3), arrays performed twice, total replicate number n = 4
  Array Heatmap signal, KDM5B (3): 0.4529
MLL5; GST-tagged MLL5, arrays performed twice, total replicate number n = 4
  Array Heatmap signal, MLL5: 0.5095
KDM5A (1); GST-tagged KDM5A (1), arrays performed twice, total replicate number n = 4
  Array Heatmap signal, KDM5A (1): 0.4335
CHD5 (PPCC); GST-tagged CHD5 (PPCC), arrays performed twice, total replicate number n = 4
  Array Heatmap signal, CHD5 (PPCC): 0.5162
DIDO1; GST-tagged DIDO1, arrays performed twice, total replicate number n = 4
  Array Heatmap signal, DIDO1: 0.6681
ING5; GST-tagged ING5, arrays performed twice, total replicate number n = 4
  Array Heatmap signal, ING5: 0.3269

## H3K79me1: H3 74-84 (IAQDF[Lys(Me)]TDLRF; UniProt P68431 75-85, looked up, fragment) [Peptide H3K79me1]
SP140L; [1]
  Array Heatmap signal, SP140L: 0.3558
TAF3; [1]
  Array Heatmap signal, TAF3: 0.2923
PHF23; [1]
  Array Heatmap signal, PHF23: 0.5609
PHF21A; [1]
  Array Heatmap signal, PHF21A: 0.4933
ING3; [1]
  Array Heatmap signal, ING3: 0.5268
KDM5A (3); [1]
  Array Heatmap signal, KDM5A (3): 0.5745
BAZ2B; [1]
  Array Heatmap signal, BAZ2B: 0.4958
PHF13; [1]
  Array Heatmap signal, PHF13: 0.6611
ING1; [1]
  Array Heatmap signal, ING1: 0.5242
KDM4C (TTP); [1]
  Array Heatmap signal, KDM4C (TTP): 0.5424
MORC3 (CW); [1]
  Array Heatmap signal, MORC3 (CW): 0.4301
ING4; [1]
  Array Heatmap signal, ING4: 0.4724
TRIM66 (PB); [1]
  Array Heatmap signal, TRIM66 (PB): 0.6065
PHF2; [1]
  Array Heatmap signal, PHF2: 0.4403
CHD5 (PCC); [1]
  Array Heatmap signal, CHD5 (PCC): 0.8253
PHF8; [1]
  Array Heatmap signal, PHF8: 0.4078
BPTF (PB); [1]
  Array Heatmap signal, BPTF (PB): 0.3836
AIRE (PP); [1]
  Array Heatmap signal, AIRE (PP): 0.5028
RAG2; [1]
  Array Heatmap signal, RAG2: 0.2827
CHD4 (PPCC); [1]
  Array Heatmap signal, CHD4 (PPCC): 0.5797
PHRF1 (RP); [1]
  Array Heatmap signal, PHRF1 (RP): 0.4478
ING2; [1]
  Array Heatmap signal, ING2: 0.6117
DPF2 (PPC2W2); [1]
  Array Heatmap signal, DPF2 (PPC2W2): 0.6501
KDM7A; [1]
  Array Heatmap signal, KDM7A: 0.422
KDM5B (1); [1]
  Array Heatmap signal, KDM5B (1): 0.6942
KDM5B (3); [1]
  Array Heatmap signal, KDM5B (3): 0.5123
MLL5; [1]
  Array Heatmap signal, MLL5: 0.6083
KDM5A (1); [1]
  Array Heatmap signal, KDM5A (1): 0.5083
CHD5 (PPCC); [1]
  Array Heatmap signal, CHD5 (PPCC): 0.6031
DIDO1; [1]
  Array Heatmap signal, DIDO1: 0.782
ING5; [1]
  Array Heatmap signal, ING5: 0.4005

## H3K79me3: H3 74-84 (IAQDF[Lys(Me3)]TDLRF; UniProt P68431 75-85, looked up, fragment) [Peptide H3K79me3]
SP140L; [1]
  Array Heatmap signal, SP140L: 0.3582
TAF3; [1]
  Array Heatmap signal, TAF3: 0.2594
PHF23; [1]
  Array Heatmap signal, PHF23: 0.5318
PHF21A; [1]
  Array Heatmap signal, PHF21A: 0.4782
ING3; [1]
  Array Heatmap signal, ING3: 0.4762
KDM5A (3); [1]
  Array Heatmap signal, KDM5A (3): 0.4757
BAZ2B; [1]
  Array Heatmap signal, BAZ2B: 0.458
PHF13; [1]
  Array Heatmap signal, PHF13: 0.6042
ING1; [1]
  Array Heatmap signal, ING1: 0.5877
KDM4C (TTP); [1]
  Array Heatmap signal, KDM4C (TTP): 0.4877
MORC3 (CW); [1]
  Array Heatmap signal, MORC3 (CW): 0.3856
ING4; [1]
  Array Heatmap signal, ING4: 0.4605
TRIM66 (PB); [1]
  Array Heatmap signal, TRIM66 (PB): 0.557
PHF2; [1]
  Array Heatmap signal, PHF2: 0.5812
CHD5 (PCC); [1]
  Array Heatmap signal, CHD5 (PCC): 0.767
PHF8; [1]
  Array Heatmap signal, PHF8: 0.3681
BPTF (PB); [1]
  Array Heatmap signal, BPTF (PB): 0.3567
AIRE (PP); [1]
  Array Heatmap signal, AIRE (PP): 0.4525
RAG2; [1]
  Array Heatmap signal, RAG2: 0.2475
CHD4 (PPCC); [1]
  Array Heatmap signal, CHD4 (PPCC): 0.5886
PHRF1 (RP); [1]
  Array Heatmap signal, PHRF1 (RP): 0.4811
ING2; [1]
  Array Heatmap signal, ING2: 0.6086
DPF2 (PPC2W2); [1]
  Array Heatmap signal, DPF2 (PPC2W2): 0.6998
KDM7A; [1]
  Array Heatmap signal, KDM7A: 0.3373
KDM5B (1); [1]
  Array Heatmap signal, KDM5B (1): 0.6382
KDM5B (3); [1]
  Array Heatmap signal, KDM5B (3): 0.4402
MLL5; [1]
  Array Heatmap signal, MLL5: 0.5385
KDM5A (1); [1]
  Array Heatmap signal, KDM5A (1): 0.4539
CHD5 (PPCC); [1]
  Array Heatmap signal, CHD5 (PPCC): 0.5544
DIDO1; [1]
  Array Heatmap signal, DIDO1: 0.7358
ING5; [1]
  Array Heatmap signal, ING5: 0.3656
